Experimental data as given in patent US7115667B2, “Ophthalmic fluid” (Planned Products Pty Ltd., priority 1999, dated 2006).

Experiments:
[1] = system: ocular substrate; assay: Subject's report on a gas permeable (hard) contact lens coated with 2–3 drops of the ophthalmic fluid; type: in vivo
Description: (§1) In use, 2–3 drops of the ophthalmic fluid of the present invention are placed onto the inside surface of the contact lens. The ophthalmic fluid is then distributed to cover fully and evenly the inside surface of the contact lens by rubbing the ophthalmic fluid into the lens with a fingertip or any other suitable applicator. It is envisaged that the ophthalmic fluid will be biologically sterile. The inside of a contact lens was coated with 2–3 drops of the ophthalmic fluid of the present invention and fitted to the subject in the conventional manner. The subject reported on the perceived ease of inserting the coated lens, the subject's sensual reaction to the coated lens and the resulting vision through the coated lens, in relation to hard and soft contact lenses.

[2] = system: ocular substrate; assay: Subject's report on a hydrogel (soft) contact lens coated with 2–3 drops of the ophthalmic fluid; type: in vivo
Description: as §1, with “The ophthalmic fluid of the present invention is suitable for use with gas permeable (hard) contact lenses or hydrogel (soft) contact lenses. In” for “In”

vision through the coated lens [1]	vision through the coated lens [2]	time after which initially blurred vision cleared [1]	time after which initially blurred vision cleared [2] [min]	SMILES	sensation/discomfort caused by the edges of the lens on the eye [1]	subject's sensual reaction to the coated lens (comfort/irritation) [1]	comfort once the coated lens was inserted [2]	tear production/expulsion and maceration [1]	sensation upon insertion / amelioration of the normal discomfort when inserting a soft lens [2]	tear production/expulsion and maceration [2]
excessively blurred	blurred	–	–	CCCCCC/C=C\CCCCCCCC(=O)OCC(COC(=O)CCCCCCC/C=C\CCCCCC)OC(=O)CCCCCCC/C=C\CCCCCC [tripalmitolein, 1,2,3-tri(cis-9-hexadecenoyl)glycerol]	not reduced to the same extent	could not feel the presence of the coated lens	comfortable	–	–	–
excessively and persistently blurred	clear vision	–	–	CCCCC/C=C\C/C=C\C/C=C\C/C=C\CCCC(=O)OCC(COC(=O)CCC/C=C\C/C=C\C/C=C\C/C=C\CCCCC)OC(=O)CCC/C=C\C/C=C\C/C=C\C/C=C\CCCCC [triarachidonin, 1,2,3-tri(cis, cis, cis, cis, −5,8,11,14-eicosatetraenoyl)glycerol]	–	comfortable to wear	–	did not experience tear production or maceration	did not produce any noticeable improvement in the wearer's comfort	increased tear production upon insertion of the soft lens, but no maceration
initially experienced blurred vision	immediately clear	approximately 60 seconds	–	CCCCC/C=C\C/C=C\CCCCCCCC(=O)OCC(COC(=O)CCCCCCC/C=C\C/C=C\CCCCC)OC(=O)CCCCCCC/C=C\C/C=C\CCCCC [trilinolein, 1,2,3-tri(cis, cis-9,12octadecadienoyl)glycerol]	not reduced to the same extent	could not feel the presence of the coated lens	could not feel the presence of the coated lens	no tear expulsion	noticeable amelioration of the normal discomfort	no tear expulsion
blurred	initially experienced blurred vision	–	2	CC/C=C\C/C=C\C/C=C\CCCCCCCC(=O)OCC(COC(=O)CCCCCCC/C=C\C/C=C\C/C=C\CC)OC(=O)CCCCCCC/C=C\C/C=C\C/C=C\CC [trilinolenin, 1,2,3-tri(cis, cis, cis −9,12,15-octadecatrienoyl)glycerol]	–	extreme irritation	comfortable to wear	increased tear production and maceration of the ocular substrate	–	–
